Several values for one entry are separate records, joined by “and”; a condition that tells them apart may be missing. Equal values may be shown once. Marks after values point to notes of the source that are not given here.
Key:
D. melanogaster [1] = assay: Genotoxicity: Somatic Mutation and Recombination Test (SMART), wing spot test, simple treatments; format: in vivo, Drosophila melanogaster
Procedure: The D. melanogaster system was selected for the determination of the safety of B. officinalis consumption as a well-recognized method to analyze vegetable complex mixtures using SMART [31, 32]. This test was used in order to evaluate the genotoxic and antigenotoxic activity of B. officinalis leaves and petioles as well as their selected bioactive compounds [33]. This activity was measured by direct visualization of the occurrence of recessive mutations in the wing hairs of two different D. melanogaster strains. Flies from experiments carried these visible wing genetic markers: the flare (flr) strain flr^3/ln (3LR) TM3, Bd^s and the multiple wing-hair (mwh) strain mwh/mwh. The marker flare (flr^3, 3_38.3) produces individual malformed hairs and the marker multiple wing hairs (mwh, 3_0.3) produces multiple hairs per cell. Larvae used in treatments come from two types of crosses: the standard cross with flr^3/TM3, Bd^S females mated to mwh/mwh males and the reciprocal cross.
Optimal fertile flies were anesthetized under CO2 narcotisation for cross selection and then placed in new vials for fertilization. After that, hybrid eggs from crossing were collected over an 8 h period and emerged larvae (72 ± 4 h later) were cleaned up for a few seconds in sterile distilled water to remove feeding medium rests. For genotoxicity analysis (simple treatments), groups of 100 larvae were transferred into vials containing 0.85 g of Drosophila Instant Medium (Formula 4–24, Carolina Biological Supply, Burlington, NC, USA) wetted with 4 mL of a mixture of distilled water and increasing concentrations of samples: B. officinalis BF and WF (1.25, 2.5, and 5 mg·mL^−1), RO (0.35, 0.7, 1.39 and 2.78 mM), SY (0.16, 0.32, 0.63 and 1.26 mM), SI (0.15, 0.29, 0.58 and 1.16 mM) and the mixture of these three bioactive compounds at each concentration assayed individually. Bioactive compound concentrations were chosen on the basis of their known content in B. officinalis species. […] Larvae were fed on these media until pupation (about 48 h). After emergence, resulting adult flies were sacrificed under CO2 narcotisation and stored in a 70% ethanol solution in sterile water. Emerged adults were counted for toxicity evaluation and transheterozygous wings (mwh flr^+/mwh^+ flr^3) were mounted on microscope slides and wing hair mutations (spots) scored, using a photonic microscope (Nikon) at 400× magnification for genotoxicity and antigenotoxicity evaluation.
For the evaluation of genotoxic effects, the frequencies of spots per fly of each treated series were compared to the concurrent negative control for each class of mutational clone as well as between simple and combined treatments for the same concentration comparisons. […] A multiple-decision procedure was used to categorize results as positive, inconclusive or negative. Inconclusive and positive results were evaluated by the non-parametric U test of Mann, Whitney and Wilcoxon. The inhibition percentage (IP) of genotoxicity was calculated from the total frequencies of spots per wing, following this formula [42]: IP = (genotoxin alone − sample + genotoxin) × 100/(genotoxin alone)(2)

D. melanogaster [2] = assay: Toxicity: survival of Drosophila larvae to emerged adults, simple and combined (H2O2) treatments; format: in vivo, Drosophila melanogaster
Procedure: Optimal fertile flies were anesthetized under CO2 narcotisation for cross selection and then placed in new vials for fertilization. After that, hybrid eggs from crossing were collected over an 8 h period and emerged larvae (72 ± 4 h later) were cleaned up for a few seconds in sterile distilled water to remove feeding medium rests. […] Bioactive compound concentrations were chosen on the basis of their known content in B. officinalis species. […] Larvae were fed on these media until pupation (about 48 h). After emergence, resulting adult flies were sacrificed under CO2 narcotisation and stored in a 70% ethanol solution in sterile water. […] The determination of Toxicity (T) of treatments in D. melanogaster was performed following this formula [39]: T = (N° of emerging individuals in treatment/N° of emerging individuals in the negative control) × 100(1) Differences in D. melanogaster survival between treatments at each concentration with respect to negative control were analyzed with a Chi-square test. This procedure was also performed for the analysis of each simple treatment with their correspondent combined treatment.

HL-60 cells = assay: Cytotoxicity: HL-60 growth/viability, Trypan Blue dye exclusion; format: cell-based, human; conditions: RO (alone or in the mixture) at concentrations over 0.55 mM, 72 h
Procedure: The human acute promyelocytic leukemia cell line HL-60 was routinely grown in suspension in RPMI medium (Invitrogen, Madrid, Spain) containing glutamine ([…], Sigma-Aldrich, St. Louis, MO, USA), antibiotics (100IU penicillin mL^−1 and 100 μg streptomycin mL^−1, Sigma-Aldrich) and supplemented with 10% heat-inactivated foetal bovine serum (Linus, Cultek, Madrid, Spain) and placed in an incubator (Shel Lab, Cornelious, OR, USA) with a 5% CO2 humidified atmosphere at 37 °C [36]. HL-60 cells were subcultured every 2–3 days to maintain logarithmic growth and they were allowed to grow for 48 h before use. Cultures were plated at a density of 12.5 × 10^4 cells mL^−1 in 40 mL culture flasks (25 cm^2). Cytotoxic activity was measured as growing inhibition or decreased viability on HL-60 cells following a previous protocol modified by us. […] Cells were counted after 72 h treatment. Tested concentrations were calculated according to those used for in vivo assays to equal the range of tested doses. Untreated cultures were used as negative control. Cell viability was determined by the Trypan Blue dye exclusion test. Cells were stained with an equal volume of Trypan Blue commercial solution (Sigma-Aldrich) and counted using a hemocytometer at room temperature under a light inverted microscope (AE30/31, Motic, Barcelona, Spain). Cytotoxic effect evaluation was determined after each culture incubation period, establishing a growth curve and determining IC50 values by regression analysis of the curves. Viability estimated regressions of leukemia cells are presented as a survival percentage with respect to controls at 72 h growth and plotted as mean viability ± standard error of at least three independent replicas for each treatment and concentration.

O=C(/C=C/c1ccc(O)c(O)c1)O[C@H](Cc1ccc(O)c(O)c1)C(=O)O [RO, rosmarinic acid]
Genotoxicity in the Drosophila wing spot test (in words) (D. melanogaster [1]; simple treatments, all concentrations): not mutagenic
Diagnosis, Small Single Spots 1–2 Cells m = 2 (D. melanogaster [1]; simple, 0.35 mM RO): −
Diagnosis, Total Spots m = 2 (D. melanogaster [1]; simple, 0.35 mM RO): −
Mutation rate, Large Single Spots >2 Cells m = 5 (D. melanogaster [1]; simple, 0.35 mM RO): 0 spots/wing
Mutation rate, Small Single Spots 1–2 Cells m = 2 (D. melanogaster [1]; simple, 0.35 mM RO): 0.38 (6) spots/wing
Mutation rate, Total Spots m = 2 (D. melanogaster [1]; simple, 0.35 mM RO): 0.38 (6) spots/wing
Mutation rate, Twin Spots m = 5 (D. melanogaster [1]; simple, 0.35 mM RO): 0 spots/wing
Diagnosis, Small Single Spots 1–2 Cells m = 2 (D. melanogaster [1]; simple, 0.7 mM RO): −
Diagnosis, Total Spots m = 2 (D. melanogaster [1]; simple, 0.7 mM RO): −
Diagnosis, Twin Spots m = 5 (D. melanogaster [1]; simple, 0.7 mM RO): −
Mutation rate, Large Single Spots >2 Cells m = 5 (D. melanogaster [1]; simple, 0.7 mM RO): 0 spots/wing
Mutation rate, Small Single Spots 1–2 Cells m = 2 (D. melanogaster [1]; simple, 0.7 mM RO): 0.21 (7) spots/wing
Mutation rate, Total Spots m = 2 (D. melanogaster [1]; simple, 0.7 mM RO): 0.26 (9) spots/wing
Mutation rate, Twin Spots m = 5 (D. melanogaster [1]; simple, 0.7 mM RO): 0.06 (2) spots/wing
Diagnosis, Small Single Spots 1–2 Cells m = 2 (D. melanogaster [1]; simple, 1.39 mM RO): −
Diagnosis, Total Spots m = 2 (D. melanogaster [1]; simple, 1.39 mM RO): −
Diagnosis, Twin Spots m = 5 (D. melanogaster [1]; simple, 1.39 mM RO): −
Mutation rate, Large Single Spots >2 Cells m = 5 (D. melanogaster [1]; simple, 1.39 mM RO): 0 spots/wing
Mutation rate, Small Single Spots 1–2 Cells m = 2 (D. melanogaster [1]; simple, 1.39 mM RO): 0.18 (4) spots/wing
Mutation rate, Total Spots m = 2 (D. melanogaster [1]; simple, 1.39 mM RO): 0.23 (5) spots/wing
Mutation rate, Twin Spots m = 5 (D. melanogaster [1]; simple, 1.39 mM RO): 0.05 (1) spots/wing
Diagnosis, Large Single Spots >2 Cells m = 5 (D. melanogaster [1]; simple, 2.78 mM RO): −
Diagnosis, Small Single Spots 1–2 Cells m = 2 (D. melanogaster [1]; simple, 2.78 mM RO): −
Diagnosis, Total Spots m = 2 (D. melanogaster [1]; simple, 2.78 mM RO): −
Mutation rate, Large Single Spots >2 Cells m = 5 (D. melanogaster [1]; simple, 2.78 mM RO): 0.05 (2) spots/wing
Mutation rate, Small Single Spots 1–2 Cells m = 2 (D. melanogaster [1]; simple, 2.78 mM RO): 0.16 (6) spots/wing
Mutation rate, Total Spots m = 2 (D. melanogaster [1]; simple, 2.78 mM RO): 0.21 (8) spots/wing
Mutation rate, Twin Spots m = 5 (D. melanogaster [1]; simple, 2.78 mM RO): 0 spots/wing
Survival average in combined treatments (D. melanogaster [2]; average of the four concentrations, combined with 0.12 M H2O2): 41.28
Survival (D. melanogaster [2]; combined with 0.12 M H2O2, 0.35 mM RO): 49.56 * %
Survival (D. melanogaster [2]; combined with 0.12 M H2O2, 0.7 mM RO): 31.11 *^,‡ %
Survival (D. melanogaster [2]; combined with 0.12 M H2O2, 1.39 mM RO): 45.56 *^,‡ %
Survival (D. melanogaster [2]; combined with 0.12 M H2O2, 2.78 mM RO): 38.89 *^,‡ %
Survival (D. melanogaster [2]; simple treatment, 0.35 mM RO): 48.44 * %
Survival (D. melanogaster [2]; simple treatment, 0.7 mM RO): 22.22 * %
Survival (D. melanogaster [2]; simple treatment, 1.39 mM RO): 33.33 * %
Survival (D. melanogaster [2]; simple treatment, 2.78 mM RO): 21.33% and 21.33 * %
Viable HL-60 cells (HL-60 cells): no viable cells could be detected

From publication PMC4728661, “Cancer Prevention and Health Benefices of Traditionally Consumed Borago officinalis Plants” (Nutrients, 2016)
